{"source": "patent US20250382346A1", "about": "“NEURONAL PROMOTERS AND USES THEREOF” (priority 2023, published 2025)", "key": {"hM3Dq [1]": {"biological_target": "T1, hM3Dq (Homo sapiens, UniProt P20309, A239G/Y149C)", "T1 construct": "expressed in transfected cells; host or cells: neurons of C57BL/6J mice or of macaques, transduced in vivo by nigral AAV8R12-G88P3-HA-hM3Dq", "T1 sequence (P20309 whole entry Y149C/A239G)": "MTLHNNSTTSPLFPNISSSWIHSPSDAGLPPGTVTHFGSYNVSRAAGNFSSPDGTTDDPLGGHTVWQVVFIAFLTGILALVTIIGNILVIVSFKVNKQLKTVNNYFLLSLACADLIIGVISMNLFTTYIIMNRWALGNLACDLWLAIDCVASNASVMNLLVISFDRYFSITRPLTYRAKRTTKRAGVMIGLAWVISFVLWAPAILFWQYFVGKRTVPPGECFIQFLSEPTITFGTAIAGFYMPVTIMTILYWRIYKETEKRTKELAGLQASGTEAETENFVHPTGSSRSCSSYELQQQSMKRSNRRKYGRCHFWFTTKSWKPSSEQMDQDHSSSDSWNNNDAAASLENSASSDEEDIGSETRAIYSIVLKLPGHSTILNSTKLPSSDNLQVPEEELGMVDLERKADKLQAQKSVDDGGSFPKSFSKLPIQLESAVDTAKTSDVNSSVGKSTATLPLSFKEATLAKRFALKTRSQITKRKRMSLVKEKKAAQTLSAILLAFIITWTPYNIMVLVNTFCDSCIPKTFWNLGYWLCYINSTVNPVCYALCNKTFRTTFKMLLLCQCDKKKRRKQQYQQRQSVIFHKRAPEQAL", "experiment": "Chemogenetic manipulation of BG direct pathway in mice with hM3Dq: rotations, nigral c-Fos", "format": "in vivo", "settings": "for c-Fos+ cells in the SNr: AAV8R12-G88P3-HA-hM3Dq; for rotation behavior (FIG. 6C), mean±SEM: control vector AAV8R12-G88P3-EYFP, n=5, no effect", "procedure": "Mice were anesthetized with sodium pentobarbital (Nembutal; 80 mg/kg, i.p.), and then placed into a stereotaxic device (KOPF). Eye cream was applied on both corneas to avoid dehydration. The skull above the targeted areas was thinned with a dental drill and carefully removed. Injections were conducted with a 10 μL syringe connected to a 33-Gauge needle (Neuros; Hamilton), using a microsyringe pump (Legato 130, KD Scientific). A total volume of 200 nL virus was injected into the SNr at a speed of 20 nL/min. The coordinates for the SNr were 3.4 mm posterior, 1.3 mm lateral, 4.8 mm ventral to the bregma.\nMice that were used in the behavioral experiments were then implanted with guide cannulas (KOPF) unilaterally aiming at the dorsomedial striatum (0.5 mm anterior, 1.5 mm lateral, 3.5 mm ventral to the bregma). The cannulas were fixed to the skull with dental cement. Stainless steel obturators were inserted into the guide cannulas and were replaced every other day to maintain the patency until infusions were made. Mice were allowed to recover from the surgery for at least 3 weeks before further studies.\nLabeling specificity of the retrograde AAV tracers was examined. […] To explore the functional features of retrograde AAV-labeled cells, AAV8R12-G88P3-HA-hM3Dq, which enables neuronal excitation upon clozapine N-oxide (CNO) administration, were injected into the right SNr of C57BL/6J mice. […] Based on the observed infection patterns of retrograde AAV, it was reasoned that the ipsiversive rotations were a consequence of the activation of the right SNr, which is a major inhibitory output center of the BG and was labeled by the locally injected AAV.\nMice were individually handled for 10-20 seconds per day for at least 5 days to habituate them to the experimenter. The open field test was conducted in a test apparatus (50 cm×50 cm×50 cm) with an HD digital camera (Sony) positioned above the arena. On day one, mice were habituated to the apparatus for 10 minutes. On day 2, mice were administrated saline (0.1 mL i.p. or 200 nL intracranially [i.e.] through the guide cannulas). On day 3, mice were administrated with Clozapine-N-oxide (CNO, Hello Bio, HB1807; 0.3 mg/kg i.p. or 200 nL at 100 μM i.e.). All behavioral tests were conducted 30 minutes after injection. During the test, mice were allowed to freely explore the apparatus for 10 minutes. The behavioral data were analyzed with ANY-maze software (Stoelting Co.)."}, "hM3Dq [2]": {"biological_target": "T1, hM3Dq", "experiment": "Striatal slice whole-cell recordings of retrogradely labeled D1-MSNs, hM3Dq", "format": "cell-based, mice", "settings": "AAV8R12-G88P3-HA-hM3Dq-2A-EYFP; CNO 10 μM; basal firing rate and resting membrane potential unaffected", "description": "Mice from different groups were anesthetized with […] isoflurane, and then decapitated. The brain was quickly extracted and placed in ice-cold N-methyl-D-glucamine (NMDG) cutting solution containing (in mM): 92 NMDG, 2.5 KCl, 25 NaHCO3, 1.25 NaH2PO4, 4.5 D-Glucose, 20 HEPES, 5 L-ascorbic acid, 3 Na-pyruvate, 2 Thiourea, 10 MgSO4, 0.5 CaCl2). The pH was adjusted to 7.2±0.1 using HCl and the osmolarity was adjusted to 305±5 mosmol/L using NMDG. The solution was bubbled with 95% O2/5% CO2 prior to use. Coronal striatum slices were cut in 250-[…]m thickness with a vibratome slicer (Leica, VT1200 S), and then incubated in artificial cerebrospinal fluid (aCSF) saturated with 95% O2/5% CO2 for at least 45 min at 37° C. before recording. The aCSF contains (in mM) 125 NaCl, 1.25 KCl, 25 NaHCO3, 1.25 KH2PO4, 25 D-Glucose, 2 CaCl2) and 1 MgCl2, supplemented with 2 mM Na-pyruvate, 3 mM Myo-inositol and 0.4 mM L-ascorbic acid.\nThe acute striatum slice was transferred to the recording chamber with a constant perfusion of oxygenized aCSF at the rate of 3 ml/min. Neurons were visualized using an upright microscope (Olympus, BX-51) with a 40× water immersion objective at room temperature (˜25° C.). […] Neurons were quickly visualized under fluorescence microscope and then patch clamp were achieved under infrared light illumination and CCD camera. […]"}}, "data": [{"smiles": "C[N+]1([O-])CCN(C2=Nc3cc(Cl)ccc3Nc3ccccc32)CC1", "note": "[CNO, Clozapine-N-oxide]", "values": [{"measurement": "rotations (FIG. 6A), mean±SEM; CNO induced ipsiversive rotations", "setting": "hM3Dq [1]; AAV8R12-G88P3-HA-hM3Dq nigral, CNO i.p., saline 45.25±4.128, n=8", "result": "87.84±4.666"}, {"measurement": "rotations (FIG. 6A), mean±SEM; CNO induced contraversive rotations", "setting": "hM3Dq [1]; AAV8R12-G88P3-HA-hM3Dq nigral, CNO intracranial into dorsomedial striatum, saline 49.63±5.879, n=8", "result": "15.08±3.435"}, {"measurement": "c-Fos+ cells in the SNr", "setting": "hM3Dq [1]; intracranial CNO infusion", "result": "No significant changes in the number of nigral c-Fos+ cells"}, {"measurement": "c-Fos+ cells in the SNr", "setting": "hM3Dq [1]; intraperitoneal CNO", "result": "significant increase in c-Fos+ cells in the right SNr"}, {"measurement": "rotation behavior (FIG. 6C), mean±SEM", "setting": "hM3Dq [1]; CNO i.p., saline 47.08±10.5", "result": "44.72±10.89"}, {"measurement": "rotation behavior (FIG. 6C), mean±SEM", "setting": "hM3Dq [1]; CNO intracranial, saline 54.22±8.766", "result": "61.39±5.774"}, {"measurement": "excitability of transduced MSNs upon CNO", "setting": "hM3Dq [2]", "result": "augmentation of excitability"}]}]}
